Results from ChEMBL document CHEMBL1126332 (Bioorg Med Chem Lett, 1992).
The source made the active and inactive calls. No cut-off for these calls is given here.

How the values were obtained:
[1] = target: T1, Polyunsaturated fatty acid 5-lipoxygenase (Homo sapiens, UniProt P09917); experiment: Inhibition of [14C]arachidonic acid conversion to 5-HETE by broken cell 5-LO isolated from guinea pig PMN; not active at the highest concentration (3 ug/mL) tested; No activity; assay type: functional, Cavia porcellus; conditions: target entry is the homologue from another species
T1 sequence (P09917 whole entry): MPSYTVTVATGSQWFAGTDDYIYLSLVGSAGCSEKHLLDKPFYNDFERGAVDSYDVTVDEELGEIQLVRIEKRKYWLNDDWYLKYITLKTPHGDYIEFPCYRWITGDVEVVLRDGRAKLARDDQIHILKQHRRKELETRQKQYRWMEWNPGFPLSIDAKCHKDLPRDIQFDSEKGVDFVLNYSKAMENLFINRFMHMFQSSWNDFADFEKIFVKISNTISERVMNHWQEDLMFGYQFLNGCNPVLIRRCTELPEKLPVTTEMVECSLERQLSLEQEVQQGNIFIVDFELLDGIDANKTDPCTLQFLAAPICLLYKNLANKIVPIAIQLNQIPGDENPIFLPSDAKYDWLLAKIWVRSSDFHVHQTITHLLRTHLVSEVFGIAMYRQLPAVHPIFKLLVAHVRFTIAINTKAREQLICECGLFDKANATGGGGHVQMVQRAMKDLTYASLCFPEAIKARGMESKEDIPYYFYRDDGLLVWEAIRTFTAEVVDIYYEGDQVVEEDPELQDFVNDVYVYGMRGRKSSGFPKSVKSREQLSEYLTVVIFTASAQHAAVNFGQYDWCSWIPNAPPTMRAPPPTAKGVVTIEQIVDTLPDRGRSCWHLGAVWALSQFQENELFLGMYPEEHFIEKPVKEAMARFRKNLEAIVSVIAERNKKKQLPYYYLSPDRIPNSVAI

Oryctolagus cuniculus = species on record: Oryctolagus cuniculus; experiment: The ability to inhibit iron-dependent lipid peroxidation of rabbit brain homogenate; not active at the highest concentration (30 ug/mL) tested; No activity; assay type: functional

IC50 [1]: Not Active | MIC (Oryctolagus cuniculus): inactive
Compound: CC1=NN(CCOc2ccc3ccccc3c2)C(=O)C1(C)C
